# From patent US8703805B2 (Exelixis Patent Company LLC, priority 2005, dated 2014)
# Tested on: LXRα and/or LXRβ
# Test: LXR/LXRE co-transfection assay (luciferase reporter, CV-1 cells)
# Type: cell-based, human
# Settings: IC50 or EC50 for LXR (LXRα and/or LXRβ, not distinguished), tested as described in Example 109, CV-1 cells
# Outline: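 Luciferase readout after 20 h compound exposure at 37 °C in CV-1 cells transiently expressing human LXRα or LXRβ with RXRα and an LXRE-driven reporter. Dose-response over 8 points at ½-log spacing, 4 wells each, fitted for EC50/IC50; values average ≥3 independent experiments, efficacy as % of high control.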
row,EC50 [nM],Structure (SMILES)
1,< 1000,"CS(=O)(=O)c1cccc(-c2ccc(-c3cc(C4(C#N)CCCC4)nn3-c3ccccc3Cl)s2)c1 [Example 1191, 1-[1-(2-chlorophenyl)-5-{5-[3-(methylsulfonyl)phenyl]-2-thienyl}-1H-pyrazol-3-yl]cyclopentanecarbonitrile]"
2,1000 to 10000,"CS(=O)(=O)c1cccc(-c2ccc(-c3cc(C(=O)NCCc4ccccn4)nn3-c3ccccc3Cl)s2)c1 [Example 1232, 1-(2-chlorophenyl)-5-{5-[3-(methylsulfonyl)phenyl]-2-thienyl}-N-(2-pyridin-2-ylethyl)-1H-pyrazole-3-carboxamide]"
3,< 1000,"COC(C)(C)c1cc(-c2ccc(-c3cccc(S(C)(=O)=O)c3)s2)n(-c2ccccc2C(F)(F)F)n1 [Example 1189, 3-[1-methyl-1-(methyloxy)ethyl]-5-{5-[3-(methylsulfonyl)phenyl]-2-thienyl}-1-[2-(trifluoromethyl)phenyl]-1H-pyrazole]"
4,< 1000,"Cc1cc(-c2cccc(S(C)(=O)=O)c2)ccc1-c1c(Cl)c(C(C)(C)O)nn1-c1cnccc1C(F)(F)F [Example 107, 2-(4-chloro-5-(3-methyl-3′-(methylsulfonyl)biphenyl-4-yl)-1-(4-(trifluoromethyl)pyridin-3-yl)-1H-pyrazol-3-yl)propan-2-ol]"
5,< 1000,"CS(=O)(=O)c1cccc(-c2ccc(-c3cc(C4(O)CC4)nn3-c3ccccc3Cl)s2)c1 [Example 1245, 1-[1-(2-chlorophenyl)-5-{5-[3-(methylsulfonyl)phenyl]-2-thienyl}-1H-pyrazol-3-yl]cyclopropanol]"
6,< 1000,"CC(C)(O)c1nn(-c2c(Cl)cncc2Cl)c(-c2ccc(-c3cccc(S(C)(=O)=O)c3)s2)c1Cl [Example 127, 2-(4-chloro-1-(3,5-dichloropyridin-4-yl)-5-(5-(3-(methylsulfonyl)phenyl)thiophen-2-yl)-1H-pyrazol-3-yl)propan-2-ol]"
7,1000 to 10000,"Cn1c(-c2cccc(S(C)(=O)=O)c2)ccc1-c1cc(C(C)(C)O)nn1-c1c(Cl)cccc1Cl [Example 1393, 2-(1-(2,6-dichlorophenyl)-5-(1-methyl-5-(3-(methylsulfonyl)phenyl)-1H-pyrrol-2-yl)-1H-pyrazole-3-yl)propan-2-ol]"
8,< 1000,"CC(C)(O)c1cc(-c2ccc(-c3cccc(S(C)(=O)=O)c3)s2)n(-c2ccccc2F)n1 [Example 1261, 2-[1-(2-fluorophenyl)-5-{5-[3-(methylsulfonyl)phenyl]-2-thienyl}-1H-pyrazol-3-yl]propan-2-ol]"
9,1000 to 10000,"CC(C)(O)c1cc(-c2ccccc2Cl)n(-c2ccc(-c3cccc(S(C)(=O)=O)c3)nc2)n1 [Example 1246, 2-[5-(2-chlorophenyl)-1-(6-[3-(methylsulfonyl)phenyl]pyridin-3-yl}-1H-pyrazol-3-yl]propan-2-ol]"
10,1000 to 10000,"CON(C)C(=O)c1cc(-c2ccc(-c3cccc(S(C)(=O)=O)c3)s2)n(-c2ncccc2C(F)(F)F)n1 [Example 1237, N-methyl-N-(methyloxy)-5-{5-[3-(methylsulfonyl)phenyl]-2-thienyl}-1-[3-(trifluoromethyl)pyridin-2-yl]-1H-pyrazole-3-carboxamide]"
11,< 1000,"CC(C)(O)c1nn(-c2cccc(Cl)c2F)c(-c2ccc(-c3cccc(S(C)(=O)=O)c3)s2)c1Br [Example 1357, 2-[4-bromo-1-(3-chloro-2-fluorophenyl)-5-{5-[3-(methylsulfonyl)phenyl]-2-thienyl}-1H-pyrazol-3-yl]propan-2-ol]"
12,< 1000,"CC(C)(O)c1nn(-c2cnccc2C(F)(F)F)c(-c2ccc(-c3cccc(S(C)(=O)=O)c3)s2)c1Br [Example 1369, 2-(4-bromo-5-{5-[3-(methylsulfonyl)phenyl]-2-thienyl}-1-[4-(trifluoromethyl)pyridin-3-yl]-1H-pyrazol-3-yl)propan-2-ol]"
13,1000 to 10000,"CC(=O)c1cc(-c2ccccc2Cl)n(-c2ccc(-c3cccc(S(C)(=O)=O)c3)cn2)n1 [Example 1248, 1-[5-(2-chlorophenyl)-1-(5-[3-(methylsulfonyl)phenyl]pyridin-2-yl}-1H-pyrazol-3-yl]ethanone]"
14,1000 to 10000,COC(=O)c1cccc(-c2ccc(-c3cc(C(=O)NCC(F)(F)F)nn3-c3ccccc3Cl)s2)c1 [Example 1275]
15,< 1000,"CC(C)(O)c1nn(-c2ccccc2OC(F)(F)F)c(-c2ccc(-c3cccc(S(C)(=O)=O)c3)s2)c1Cl [Example 1367, 2-(4-chloro-5-{5-[3-(methylsulfonyl)phenyl]-2-thienyl}-1-{2-[(trifluoromethyl)oxy]phenyl}-1H-pyrazol-3-yl)propan-2-ol]"
16,< 1000,"CC(C)(O)c1nn(-c2ccccc2C(F)(F)F)c(-c2ccc(-c3cccc(S(C)(=O)=O)c3)s2)c1Br [Example 1349, 2-(4-bromo-5-{5-[3-(methylsulfonyl)phenyl]-2-thienyl}-1-[2-(trifluoromethyl)phenyl]-1H-pyrazol-3-yl)propan-2-ol]"
17,1000 to 10000,"CC(C)NC(=O)c1cccc(-c2ccc(-c3cc(C(C)(C)O)nn3-c3ccccc3Cl)cc2)c1 [Example 1292, 4′-[1-(2-chlorophenyl)-3-(1-hydroxy-1-methylethyl)-1H-pyrazol-5-yl]-N-(1-methylethyl)biphenyl-3-carboxamide]"
18,< 1000,"Cc1cc(-c2cccc(S(C)(=O)=O)c2)ccc1-n1nc(C(C)(C)O)c(Cl)c1-c1ccccc1Cl [Example 1422, 2-(4-chloro-5-(2-chlorophenyol)-1-(3-methyl-3′-(methylsulfonyl)biphenyl-4-yl)-1H-pyrazol-3-yl)propan-2-ol]"
19,< 1000,"CC(C)c1ccccc1-n1nc(C(C)(C)O)cc1-c1ccc(-c2cccc(S(C)(=O)=O)c2)s1 [Example 1345, 2-(1-[2-(1-methylethyl)phenyl]-5-{5-[3-(methylsulfonyl)phenyl]-2-thienyl}-1H-pyrazol-3-yl)propan-2-ol]"
20,1000 to 10000,"O=C(O)Cc1ccc(F)c(-c2ccc(-c3cc(C(F)(F)F)nn3-c3ncccc3C(F)(F)F)s2)c1 [Example 1152, [4-fluoro-3-(5-{3-(trifluoromethyl)-1-[3-(trifluoromethyl)pyridin-2-yl]-1H-pyrazol-5-yl}-2-thienyl)phenyl]acetic acid]"
21,< 1000,"CC(C)(O)c1nn(-c2ccccc2OC(F)(F)F)c(-c2ccc(-c3cccc(S(C)(=O)=O)c3)s2)c1Br [Example 1359, 2-(4-bromo-5-{5-[3-(methylsulfonyl)phenyl]-2-thienyl)-1-{2-[(trifluoromethyl)oxy]phenyl}-1H-pyrazol-3-yl)propan-2-ol]"
22,1000 to 10000,"CC(C)(O)c1cc(-c2ccc(-c3ccc(F)c(C(F)(F)F)c3)cc2)n(-c2ccccc2Cl)n1 [Example 1299, 2-{1-(2-chlorophenyl)-5-[4′-fluoro-3′-(trifluoromethyl)biphenyl-4-yl]-1H-pyrazol-3-yl}propan-2-ol]"
23,< 1000,"CN(Cc1ccncc1)Cc1cc(-c2ccc(-c3cccc(S(C)(=O)=O)c3)s2)n(-c2ccccc2Cl)n1 [Example 547, 1-[1-(2-chlorophenyl)-5-{5-[3-(methylsulfonyl)phenyl]-2-thienyl}-1H-pyrazol-3-yl]-N-methyl-N-(pyridin-4-ylmethyl)methanamine]"
24,< 1000,"CC(C)(O)c1cc(-c2sc(-c3cccc(S(C)(=O)=O)c3)cc2Br)n(-c2cccc(F)c2C(F)(F)F)n1 [Example 49, 2-(5-(3-bromo-5-(3-(methylsulfonyl)phenyl)thiophen-2-yl)-1-(3-fluoro-2-(trifluoromethyl)phenyl)-1H-pyrazol-3-yl)propan-2-ol]"
